# Data from publication PMC7413254 (Nature Communications, 2020).
# Read-outs that look alike come from different tables or passages of the source.
# How the values were obtained:
# non-expressing oocytes [1] = experiment: cells; type: cell-based, Xenopus laevis; settings: Xenopus laevis, total [3H]CQ transport; for inhibition at 500 µM: [test solute] = 0.5 mM; for inhibition at 1000 µM: [test solute] = 1 mM; for inhibition at 2000 µM: [test solute] = 2 mM
# Method in brief: (§1)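 Oocytes expressing PfCRT isoforms, or non-expressing controls, were incubated 1.5 h at 27.5 °C in ND96 buffer pH 5.5 (96 mM NaCl, 2 mM KCl, 1 mM MgCl2, 1.8 mM CaCl2, 10 mM MES, 10 mM Tris-base), measuring uptake from acidic medium into cytosol. Oocytes were washed ice-cold, SDS-lysed and counted by scintillation.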
# PfCRT [2] = experiment: Test of solutes as potential co-substrates for influx of VF-6 via PfCRT into the oocyte; type: cell-based, Plasmodium falciparum; set-up: key: X: Compounds that have been tested as potential co-substrates but are not required for influx of VF-6 via PfCRT into the oocyte; settings: X = tested
# non-expressing oocytes [3] = type: cell-based, Xenopus laevis; settings: total [3H]CQ transport; for Uptake of [3H]CQ (% non-expressing oocyte control), trans-stimulation: non-expressing oocytes, normalised to the oocyte type control; for Uptake of [3H]CQ (% PfCRTDd2 control), trans-stimulation, non-expressing oocytes: mean ± SEM, SEM
# Method in brief: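 Oocytes (ten per treatment, ≥4 independent frogs/days) were preloaded by injecting VF-6 in 25 nL ND96 at pH 5.0, 5.5, 6.0 or 7.0, or Na^+-free choline buffer, then uptake run 1.5 h, 27.5 °C, ND96 pH 5.5 by default. Internal concentrations assumed ~400 nL oocyte volume.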
# PfCRT^3D7 [4] = molecular target: T1, PfCRT^3D7 (Plasmodium falciparum, UniProt Q8IBZ9); experiment: cell-based; type: cell-based
# Method in brief: (§2)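 Transport measured in Xenopus oocytes expressing the transporters, 1.5 h at 27.5 °C in ND96 pH 5.5 unless noted. For trans-stimulation, VF-6 injected in 25 nL ND96 at pH 5.0–7.0 or Na^+-free (choline) buffer; intracellular levels based on ~400 nL oocyte volume. Ten oocytes per treatment, ≥4 experiments.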
# PfCRT^Ecu1110 [5] = molecular target: T2, PfCRT^Ecu1110 (Plasmodium falciparum, UniProt Q9N623, A220S/I356L/K76T/N326D); experiment: cell-based; type: cell-based; settings: […]
# Method in brief: as §2
# PfNT1 = molecular target: T3, PfNT1 (Plasmodium falciparum, UniProt Q8IDM6); experiment: cell-based; type: cell-based; settings: for activity at 5000 µM: total [3H]CQ transport
# T3 construct: expressed in transfected cells; host or cells: Xenopus laevis oocytes (stage V-VI), cRNA-injected
# Method in brief: as §2
# PfCRT^Dd2 [6] = molecular target: T4, PfCRT^Dd2 (Plasmodium falciparum, UniProt Q9N623, A220S/I356T/K76T/M74I/N326S/N75E/Q271E/R371I); experiment: cell-based; type: cell-based; settings: […]; for activity at 45000 µM: [test solute]i = 45 mM (30 mM for some solutes due to solubility)
# Method in brief: as §2
# PfCRT^3D7 [7] = molecular target: T1, PfCRT^3D7; experiment: cell-based; type: cell-based; settings: total [3H]CQ transport; for inhibition at 500 µM: [test solute] = 0.5 mM; for inhibition at 1000 µM: [test solute] = 1 mM; for inhibition at 2000 µM: [test solute] = 2 mM
# Method in brief: as §1
# PfCRT^Ecu1110 [8] = molecular target: T2, PfCRT^Ecu1110; experiment: [3H]CQ uptake into Xenopus oocytes, cis-inhibition by unlabelled solute; type: cell-based
# Method in brief: as §1
# PfCRT^Dd2 [9] = molecular target: T4, PfCRT^Dd2; experiment: as above; type: cell-based
# Method in brief: as §1
# PfCRT [10] = experiment: Influx of VF-6 via PfCRT into the oocyte, solutes tested as potential co-substrates; type: cell-based, Plasmodium falciparum; set-up: key: X: Compounds that have been tested as potential co-substrates but are not required for influx of VF-6 via PfCRT into the oocyte; settings: X marks the solute
# [11] = Oocyte, mean ± SEM, SEM, read-out: Uptake of [3H]CQ (% PfCRTDd2 control), cis-inhibition, non-expressing oocytes
# [12] = non-expressing oocytes, normalised to the oocyte type control, read-out: Uptake of [3H]CQ (% non-expressing oocyte control), cis-inhibition
# [13] = PfCRT3D7 oocytes, normalised to the oocyte type control, read-out: Uptake of [3H]CQ (% PfCRT3D7 control), cis-inhibition
# [14] = mean ± SEM, SEM, read-out: Uptake of [3H]CQ (% PfCRTDd2 control), cis-inhibition, PfCRT3D7
# [15] = read-out: PfCRT-mediated [3H]CQ transport, cis-inhibition (% PfCRTEcu1110 control)
# [16] = read-out: Uptake of [3H]CQ (% PfCRTDd2 control), cis-inhibition, PfCRTEcu1110, SEM
# [17] = read-out: Uptake of [3H]CQ (% PfCRTEcu1110 control), cis-inhibition
# [18] = read-out: [3H]CQ transport (% PfCRTEcu1110 control), cis-inhibition, PfCRTEcu1110, SEM
# [19] = read-out: PfCRT-mediated [3H]CQ transport, cis-inhibition (% PfCRTDd2 control)
# [20] = read-out: Uptake of [3H]CQ (% PfCRTDd2 control), cis-inhibition, PfCRTDd2, SEM
# T1 sequence (Q8IBZ9 59-398): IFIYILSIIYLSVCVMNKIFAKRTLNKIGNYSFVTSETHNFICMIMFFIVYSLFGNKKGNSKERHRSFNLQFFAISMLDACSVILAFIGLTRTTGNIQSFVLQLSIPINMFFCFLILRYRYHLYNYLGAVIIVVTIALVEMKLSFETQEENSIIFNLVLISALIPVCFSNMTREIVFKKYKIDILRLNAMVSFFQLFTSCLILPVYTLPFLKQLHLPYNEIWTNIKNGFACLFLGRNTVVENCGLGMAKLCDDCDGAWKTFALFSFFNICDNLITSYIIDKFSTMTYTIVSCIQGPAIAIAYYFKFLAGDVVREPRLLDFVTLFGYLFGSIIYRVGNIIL
# T2 sequence (Q9N623 whole entry A220S/I356L/K76T/N326D): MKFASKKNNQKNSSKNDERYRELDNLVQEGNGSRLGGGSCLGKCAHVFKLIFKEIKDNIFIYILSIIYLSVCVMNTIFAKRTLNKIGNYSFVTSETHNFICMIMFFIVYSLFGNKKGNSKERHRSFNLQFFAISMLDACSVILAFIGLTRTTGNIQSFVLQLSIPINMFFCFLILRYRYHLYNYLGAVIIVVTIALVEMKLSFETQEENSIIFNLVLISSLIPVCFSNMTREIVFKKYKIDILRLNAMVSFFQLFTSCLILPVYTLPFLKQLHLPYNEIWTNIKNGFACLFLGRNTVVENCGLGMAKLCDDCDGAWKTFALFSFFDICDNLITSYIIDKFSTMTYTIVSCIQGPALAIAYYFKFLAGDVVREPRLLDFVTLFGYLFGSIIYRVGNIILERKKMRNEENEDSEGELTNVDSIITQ
# T4 sequence (Q9N623 whole entry A220S/I356T/K76T/M74I/N326S/N75E/Q271E/R371I): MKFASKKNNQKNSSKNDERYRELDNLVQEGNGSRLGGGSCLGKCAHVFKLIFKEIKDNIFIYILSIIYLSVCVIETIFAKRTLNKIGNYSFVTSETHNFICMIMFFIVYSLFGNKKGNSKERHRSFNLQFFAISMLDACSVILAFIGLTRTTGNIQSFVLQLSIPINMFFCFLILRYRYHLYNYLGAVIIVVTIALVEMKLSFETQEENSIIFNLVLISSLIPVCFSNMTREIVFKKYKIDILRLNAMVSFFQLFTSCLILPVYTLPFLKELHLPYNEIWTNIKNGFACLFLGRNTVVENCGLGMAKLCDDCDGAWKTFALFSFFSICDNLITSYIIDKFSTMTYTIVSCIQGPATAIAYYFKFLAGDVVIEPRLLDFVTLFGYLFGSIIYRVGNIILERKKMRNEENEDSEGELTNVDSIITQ
# T3 sequence (Q8IDM6 whole entry): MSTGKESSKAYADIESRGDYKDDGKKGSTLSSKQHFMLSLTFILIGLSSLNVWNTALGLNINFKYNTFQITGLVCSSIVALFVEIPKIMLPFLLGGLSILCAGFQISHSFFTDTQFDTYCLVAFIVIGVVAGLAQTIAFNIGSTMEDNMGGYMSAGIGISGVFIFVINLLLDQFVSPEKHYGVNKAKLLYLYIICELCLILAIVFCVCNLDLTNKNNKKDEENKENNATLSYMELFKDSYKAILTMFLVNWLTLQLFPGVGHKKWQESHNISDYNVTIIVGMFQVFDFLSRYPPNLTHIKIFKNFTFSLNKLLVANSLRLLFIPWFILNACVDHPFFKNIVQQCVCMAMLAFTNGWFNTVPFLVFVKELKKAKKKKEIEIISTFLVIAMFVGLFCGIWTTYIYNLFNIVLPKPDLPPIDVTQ
smiles,measurement,setting,value
C[C@H](N)C(=O)O [L-alanine],inhibition at 500 µM,non-expressing oocytes [1]; [11],3.5 ± 0.08%
same,inhibition at 1000 µM,non-expressing oocytes [1]; [11],3.7 ± 0.08%
same,inhibition at 2000 µM,non-expressing oocytes [1]; [11],2.2 ± 0.06%
same,inhibition at 500 µM,non-expressing oocytes [1]; [12],99 ± 5.3%
same,inhibition at 1000 µM,non-expressing oocytes [1]; [12],100 ± 3.5%
same,inhibition at 2000 µM,non-expressing oocytes [1]; [12],99 ± 1.4%
same,Tested as potential co-substrate but not required for influx of VF-6 via PfCRT into the oocyte,PfCRT [2],X
same,"Uptake of [3H]CQ (% non-expressing oocyte control), trans-stimulation",non-expressing oocytes [3]; [test solute]i = 5 mM,99 ± 3.2 % non-expressing oocyte control
same,"Uptake of [3H]CQ (% non-expressing oocyte control), trans-stimulation",non-expressing oocytes [3]; [test solute]i = 45 mM (30 mM for some solutes due to solubility),99 ± 2.2 % non-expressing oocyte control
same,"Uptake of [3H]CQ (% PfCRTDd2 control), trans-stimulation, non-expressing oocytes",non-expressing oocytes [3]; [test solute]i = 5 mM (intracellular),3.1 ± 0.03 % PfCRTDd2 control
same,"Uptake of [3H]CQ (% PfCRTDd2 control), trans-stimulation, non-expressing oocytes",non-expressing oocytes [3]; [test solute]i = 45 mM (intracellular; 30 mM for some solutes due to solubility),3.3 ± 0.08 % PfCRTDd2 control
same,activity at 5000 µM,"PfCRT^3D7 [4]; PfCRT3D7 oocytes, [test solute]i = 5 mM, total [3H]CQ transport, normalised to the oocyte type control, read-out: Uptake of [3H]CQ (% PfCRT3D7 control), trans-stimulation",99 ± 3.6%
same,"[3H]CQ transport (% PfCRT3D7 control), trans-stimulation, PfCRT3D7",PfCRT^3D7 [4]; SEM,0.3 ± 0.01 % PfCRT3D7 control
same,activity at 5000 µM,"PfCRT^3D7 [4]; [test solute]i = 5 mM (intracellular), PfCRT3D7 oocytes, normalised to oocyte type control, read-out: PfCRT-mediated [3H]CQ transport, trans-stimulation (% PfCRT3D7 control)",97 ± 2.1%
same,activity at 45000 µM,"PfCRT^3D7 [4]; SEM, read-out: Uptake of [3H]CQ (% PfCRTDd2 control), trans-stimulation, PfCRT3D7",3.3 ± 0.05%
same,activity at 45000 µM,"PfCRT^3D7 [4]; read-out: PfCRT-mediated [3H]CQ transport, trans-stimulation (% PfCRT3D7 control)",97 ± 2.3%
same,activity at 45000 µM,"PfCRT^3D7 [4]; read-out: Uptake of [3H]CQ (% PfCRT3D7 control), trans-stimulation",99 ± 3.2%
same,activity at 5000 µM,"PfCRT^3D7 [4]; total [3H]CQ transport, [test solute]i = 5 mM (intracellular), mean ± SEM, SEM, read-out: Uptake of [3H]CQ (% PfCRTDd2 control), trans-stimulation, PfCRT3D7",3.3 ± 0.05%
same,activity at 5000 µM,"PfCRT^Ecu1110 [5]; pH 5.5, read-out: PfCRT-mediated [3H]CQ transport, trans-stimulation (% PfCRTEcu1110 control), [test solute]i = 5 mM (intracellular), PfCRTEcu1110 oocytes, normalised to oocyte type control",97 ± 1.4%
same,activity at 5000 µM,"PfCRT^Ecu1110 [5]; pH 5.5, read-out: Uptake of [3H]CQ (% PfCRTEcu1110 control), trans-stimulation, PfCRTEcu1110 oocytes, [test solute]i = 5 mM, total [3H]CQ transport, normalised to the oocyte type control",99 ± 3.2%
same,activity at 45000 µM,"PfCRT^Ecu1110 [5]; pH 5.5, read-out: Uptake of [3H]CQ (% PfCRTEcu1110 control), trans-stimulation, PfCRTEcu1110 oocytes, [test solute]i = 45 mM (30 mM for some solutes due to solubility), total [3H]CQ transport, normalised to the oocyte type control",101 ± 2.1%
same,activity at 5000 µM,"PfCRT^Ecu1110 [5]; read-out: Uptake of [3H]CQ (% PfCRTDd2 control), trans-stimulation, PfCRTEcu1110, total [3H]CQ transport, [test solute]i = 5 mM (intracellular), mean ± SEM, SEM",35 ± 2.6%
same,activity at 45000 µM,"PfCRT^Ecu1110 [5]; read-out: Uptake of [3H]CQ (% PfCRTDd2 control), trans-stimulation, PfCRTEcu1110, total [3H]CQ transport, [test solute]i = 45 mM (intracellular; 30 mM for some solutes due to solubility), mean ± SEM, SEM",36 ± 1.5%
same,activity at 5000 µM,"PfNT1; PfNT1 oocytes, [test solute]i = 5 mM, normalised to the oocyte type control, read-out: Uptake of [3H]CQ (% PfNT1 control), trans-stimulation",99 ± 3.1%
same,activity at 45000 µM,"PfNT1; SEM, read-out: Uptake of [3H]CQ (% PfCRTDd2 control), trans-stimulation, PfNT1",3.2 ± 0.02%
same,activity at 45000 µM,"PfNT1; read-out: Uptake of [3H]CQ (% PfNT1 control), trans-stimulation",99 ± 3.6%
same,activity at 5000 µM,"PfNT1; [test solute]i = 5 mM (intracellular), mean ± SEM, SEM, read-out: Uptake of [3H]CQ (% PfCRTDd2 control), trans-stimulation, PfNT1",2.2 ± 0.03%
same,activity at 5000 µM,"PfCRT^Dd2 [6]; pH 5.5, read-out: PfCRT-mediated [3H]CQ transport, trans-stimulation (% PfCRTDd2 control), [test solute]i = 5 mM (intracellular), PfCRTDd2 oocytes, normalised to oocyte type control",95 ± 1.9%
same,activity at 5000 µM,"PfCRT^Dd2 [6]; pH 5.5, read-out: Uptake of [3H]CQ (% PfCRTDd2 control), trans-stimulation, PfCRTDd2, total [3H]CQ transport, [test solute]i = 5 mM (intracellular), mean ± SEM, SEM",97 ± 3.3%
same,activity at 5000 µM,"PfCRT^Dd2 [6]; pH 5.5, read-out: Uptake of [3H]CQ (% PfCRTDd2 control), trans-stimulation, PfCRTDd2 oocytes, [test solute]i = 5 mM, total [3H]CQ transport, normalised to the oocyte type control",97 ± 3.3%
same,activity at 45000 µM,"PfCRT^Dd2 [6]; pH 5.5, read-out: Uptake of [3H]CQ (% PfCRTDd2 control), trans-stimulation, PfCRTDd2 oocytes, total [3H]CQ transport, normalised to the oocyte type control",98 ± 1.9%
same,activity at 5000 µM,"PfCRT^Dd2 [6]; pH 5.5, read-out: [3H]CQ transport (% PfCRTDd2 control), trans-stimulation, PfCRTDd2, trans-stimulation, [test solute]i = 5 mM (injected), PfCRT-mediated component (background subtracted), mean ± SEM, SEM",95 ± 1.9%
same,activity at 45000 µM,"PfCRT^Dd2 [6]; pH 5.5, read-out: [3H]CQ transport (% PfCRTDd2 control), trans-stimulation, PfCRTDd2, trans-stimulation, PfCRT-mediated component (background subtracted), mean ± SEM, SEM",96 ± 3.2%
same,inhibition at 500 µM,PfCRT^3D7 [7]; [13],99 ± 3.2%
same,inhibition at 1000 µM,PfCRT^3D7 [7]; [13],100 ± 3.6%
same,inhibition at 2000 µM,PfCRT^3D7 [7]; [13],99 ± 4.6%
same,inhibition at 500 µM,PfCRT^3D7 [7]; [14],4.2 ± 0.03%
same,inhibition at 1000 µM,PfCRT^3D7 [7]; [14],3.1 ± 0.07%
same,inhibition at 2000 µM,PfCRT^3D7 [7]; [14],3.2 ± 0.08%
same,inhibition at 500 µM,PfCRT^Ecu1110 [8]; [15],93 ± 1.3%
same,inhibition at 1000 µM,PfCRT^Ecu1110 [8]; [15],95 ± 1.7%
same,inhibition at 500 µM,PfCRT^Ecu1110 [8]; [16],31 ± 2.5%
same,inhibition at 1000 µM,PfCRT^Ecu1110 [8]; [16],32 ± 2.1%
same,inhibition at 2000 µM,PfCRT^Ecu1110 [8]; [16],32 ± 0.9%
same,inhibition at 500 µM,PfCRT^Ecu1110 [8]; [17],96 ± 2.5%
same,inhibition at 1000 µM,PfCRT^Ecu1110 [8]; [17],97 ± 2.5%
same,inhibition at 2000 µM,PfCRT^Ecu1110 [8]; [17],98 ± 4.1%
same,inhibition at 500 µM,PfCRT^Ecu1110 [8]; [18],28 ± 0.6%
same,inhibition at 1000 µM,PfCRT^Ecu1110 [8]; [18],29 ± 1.1%
same,inhibition at 2000 µM,PfCRT^Ecu1110 [8]; [18],29 ± 1.5%
same,inhibition at 500 µM,PfCRT^Dd2 [9]; [19],95 ± 2.1%
same,inhibition at 1000 µM,PfCRT^Dd2 [9]; [19],94 ± 3.8%
same,inhibition at 500 µM,PfCRT^Dd2 [9]; [20],97 ± 4.6%
same,inhibition at 1000 µM,PfCRT^Dd2 [9]; [20],96 ± 3.3%
same,inhibition at 2000 µM,PfCRT^Dd2 [9]; [20],98 ± 3.1%
same,Compounds that have been tested as potential co-substrates but are not required for influx of VF-6 via PfCRT into the oocyte,PfCRT [10],X
